Measured values reported in PMC8388802, “Study on the Structure-Activity Relationship of an Antimicrobial Peptide, Brevinin-2GUb, from the Skin Secretion of Hylarana guentheri” (Antibiotics, 2021).
Values after ≈ are worked out from the molar mass of the structure shown. Where a SMILES comes first, the peptide text is derived from it.

Legend:
[1] = system: C. albicans (ATCC CRM 10231); assay type: cell-based, Candida albicans
Protocol: (§1) The method of antimicrobial assay is based on the Methods for Dilution Antimicrobial Susceptibility Tests for Bacteria that Grow Aerobically from the Clinical and Laboratory Standards Institute (CLSI).The antimicrobial activities of peptides were evaluated against Gram-positive bacteria S. aureus (ATCC 6538), MRSA (NCTC 12493), E. faecalis (NCTC 12493), Gram-negative bacteria E. coli (ATCC CRM 8739), K. pneumoniae (ATCC 43816), P. aeruginosa (ATCC CRM 9027), yeast C. albicans (ATCC CRM 10231) and clinical isolates MRSA (B042 V2E1 A), E. coli (ATCC BAA-2340), K. pneumoniae (ATCC BAA-1705), P. aeruginosa (B004 V2S2 B).
(§2) At the first stage of the assay, 20 μL bacteria were cultured in 100 mL Mueller Hinton Broth (MHB) or Yeast Extract–Peptone–Dextrose broth (YPD-B), respectively, and was incubated overnight. Then, microorganisms were subcultured in 20 mL fresh MHB or YPD-B to achieve cultures in the logarithmic phase (1 × 10^8 CFU/mL), which can be verified by optical density (OD) (The OD of Gram-positive bacteria is 0.23, OD of Gram-negative bacteria is 0.4, and OD of yeast is 0.15), and viable cell counts. Then, the medium was used to dilute the cultures to specific cell densities (Gram-negative and Gram-positive bacteria: 5 × 10^5 CFU/mL; yeast: 1 × 10^6 CFU/mL), which were the final concentrations of bacterial suspensions used in the assay. The peptides were dissolved in DMSO to reach a final concentration of 512 µM. A series of two-fold dilutions ranging from 512 µM to 1 µM were dosed in the 96-well plates.
(§3) Antimicrobial assays were conducted in 96-well plates, which were divided into five groups, including a negative control group (PBS), a positive control group (20 μg/mL norfloxacin for bacteria and 10 μg/mL amphotericin B for yeast), vehicle control (1% DMSO), blank control (MHB or YPD-B), and a peptide group. Each microorganism had five repetitions, and each well contained 1 µL corresponding solution and 99 µL culture. After incubation at 37 °C overnight, the absorbance of each well was tested by a microplate reader (EL808, Biolise BioTek Winooski, Minneapolis, USA) under a 550 nm wavelength. The MIC is the lowest concentration at which no bacterial growth can be observed.
(§4) The next day, 10 µL of every clear well was taken out to be cultured on a Mueller Hinton Agar (MHA) plate and incubated at 37 °C for 16–20 h. The MBC is the lowest concentration without any bacterial colonies, which means at this concentration, the peptide reduces the viability of the pathogen by more than 99.9%.

E. faecalis (NCTC 12493) = assay type: cell-based, Enterococcus faecalis
Protocol: as §1, §2, §3, §4

MRSA (B042 V2E1 A) = assay type: cell-based, Methicillin-resistant Staphylococcus aureus
Protocol: as §1, §2, §3, §4

MRSA (NCTC 12493) = assay type: cell-based, Methicillin-resistant Staphylococcus aureus
Protocol: as §1, §2, §3, §4

E. coli (ATCC CRM 8739) = assay type: cell-based, Escherichia coli
Protocol: as §1, §2, §3, §4

[2] = system: P. aeruginosa (ATCC CRM 9027); assay type: cell-based, Pseudomonas aeruginosa
Protocol: as §1, §2, §3, §4

[3] = system: K. pneumoniae (ATCC 43816); assay type: cell-based, Klebsiella pneumoniae
Protocol: as §1, §2, §3, §4

[4] = system: K. pneumoniae (ATCC BAA-1705); assay type: cell-based, Klebsiella pneumoniae
Protocol: as §1, §2, §3, §4

[5] = system: S. aureus (ATCC 6538) biofilm; assay type: cell-based, Staphylococcus aureus; settings: ATCC 6538, 24 h
Protocol: (§5) The anti-biofilm activities of the peptides against S. aureus (ATCC 6538), MRSA (NCTC 12493), E. faecalis (NCTC 12493), E. coli (ATCC CRM 8739), K. pneumoniae (ATCC 43816), and P. aeruginosa (ATCC CRM 9027) were evaluated.
(§6) The bacteria were inoculated in a different medium (Gram-positive bacteria were in TSB and Gram-negative bacteria were in LB) overnight, and the subculture was conducted in the same medium. When the bacteria reached a specific density, 100 µL of the dilution was added to each well of the 96-well microplate. Then 1 µL of peptide at a series of concentrations, the same concentration in the antimicrobial assay, were added into the well together with the bacteria. The plates were put into a moist shaking incubator with a speed of 200 rpm, and the temperature was set at 37 ℃. After a 24-h incubation, the liquid in the wells was aspirated, and each was washed twice by 100 µL PBS. One hundred µL of methanol were added into each well to stabilise the biofilm. After air-drying, 100 µL crystal violet was used to dye the biofilm, and they were dissolved in the 100 µL glacial acidic acid after drying. The solutions were transferred to a new microplate, and the absorbance of each well was tested by a microplate reader (EL808, Biolise BioTek Winooski, Minneapolis, MN, USA) at 595 nm wavelength. MBIC was the minimum concentration of the peptide showing no biofilm formation.
(§7) The bacteria were inoculated in a different medium (Gram-positive bacteria were in TSB and Gram-negative bacteria were in LB) overnight, and the subculture was conducted in the same medium. When the bacteria reached a specific density, 100 µL of the dilution was added to each well of the 96-well microplates. The plates were put into a moist shaking incubator with a speed of 200 rpm and the temperature was 37 ℃. After a 24 h incubation, the liquid in the wells was aspirated and they were washed twice by 100 µL PBS of each well. The peptides with the same concentrations were diluted in the corresponding medium and 100 µL were added into each well. After a 24-h incubation, the liquid in the wells was aspirated and they were washed twice by 100 µL PBS. One hundred µL of methanol were added into the wells to stabilise the biofilms. After being air-dried, 100 µL crystal violet was used to dye the biofilm, and they were dissolved in the 100 µL glacial acidic acid after drying. The solutions were transferred to a new microplate, and the absorbance of each well was tested by a microplate reader (EL808, Biolise BioTek Winooski, Minneapolis, USA) at 595 nm wavelength.

[6] = system: E. coli (ATCC CRM 8739) biofilm; assay type: cell-based, Escherichia coli; settings: ATCC CRM 8739, 24 h
Protocol: as §5, §6, §7

Row | MIC [1] [µM] | MIC (E. faecalis (NCTC 12493)) [µM] | MIC (MRSA (B042 V2E1 A)) [µM] | MIC (MRSA (NCTC 12493)) [µM] | MIC (E. coli (ATCC CRM 8739)) [µM] | MIC [2] [µM] | MIC [3] [µM] | MIC [4] [µM] | Compound | MBC [1] [µM] | MBC (E. faecalis (NCTC 12493)) [µM] | MBC (MRSA (B042 V2E1 A)) [µM] | MBC (MRSA (NCTC 12493)) [µM] | MBC (E. coli (ATCC CRM 8739)) [µM] | MBC [2] [µM] | MBC [3] [µM] | MBC [4] [µM] | MBEC [5] [µM] | MBIC [5] [µM] | MBEC [6] [µM] | MBIC [6] [µM]
1 | 256 (≈ 499 µg/mL) | 64 (≈ 125 µg/mL) | 256 (≈ 499 µg/mL) | 64 (≈ 125 µg/mL) | 2 (≈ 3.9 µg/mL) | 16 (≈ 31.2 µg/mL) | 32 (≈ 62.4 µg/mL) | 128 (≈ 249 µg/mL) | CC[C@H](C)[C@H](NC(=O)[C@@H](NC(=O)CN)C(C)C)C(=O)N[C@H](C(=O)N[C@@H](CCCCN)C(=O)N[C@@H](CCCCN)C(=O)N[C@@H](CC(C)C)C(=O)N[C@@H](CCCCN)C(=O)NCC(=O)N[C@@H](C)C(=O)N[C@@H](C)C(=O)N[C@@H](CCCCN)C(=O)N[C@@H](CCCCN)C(=O)N[C@H](C(=O)N[C@@H](C)C(=O)N[C@@H](C)C(=O)N[C@@H](CCCCN)C(=O)N[C@@H](CC(C)C)C(=O)N[C@@H](CC(C)C)C(N)=O)C(C)C)[C@@H](C)CC [tB2U-6K] (H-GVIIKKLKGAAKKVAAKLL-NH2) | 256 (≈ 499 µg/mL) | 64 (≈ 125 µg/mL) | 256 (≈ 499 µg/mL) | 128 (≈ 249 µg/mL) | 2 (≈ 3.9 µg/mL) | 16 (≈ 31.2 µg/mL) | 32 (≈ 62.4 µg/mL) | 128 (≈ 249 µg/mL) | > 512 | 64 | > 512 | 2
2 | >512 | >512 | >512 | >512 | >512 | >512 | >512 | >512 | CC[C@H](C)[C@H](NC(=O)[C@@H](NC(=O)CN)C(C)C)C(=O)N[C@H](C(=O)N[C@@H](CCCCN)C(=O)N[C@H](C(=O)N[C@@H](CC(C)C)C(=O)N[C@@H](CCCCN)C(=O)NCC(=O)N[C@@H](C)C(=O)N[C@@H](C)C(=O)N[C@@H](CCCCN)C(=O)N[C@H](C(=O)N[C@H](C(N)=O)C(C)C)[C@@H](C)O)[C@@H](C)O)[C@@H](C)CC [Peptide 14-tB2U-K] (H-GVIIKTLKGAAKTV-NH2) | >512 | >512 | >512 | >512 | >512 | >512 | >512 | >512 | >512 | >512 | >512 | >512
3 | 64 (≈ 121 µg/mL) | 32 (≈ 60.6 µg/mL) | >512 | 128 (≈ 242 µg/mL) | 8 (≈ 15.2 µg/mL) | 32 (≈ 60.6 µg/mL) | 128 (≈ 242 µg/mL) | 128 (≈ 242 µg/mL) | CC[C@H](C)[C@H](NC(=O)[C@@H](NC(=O)CN)C(C)C)C(=O)N[C@H](C(=O)N[C@@H](CCCCN)C(=O)N[C@H](C(=O)N[C@@H](CC(C)C)C(=O)N[C@@H](CCCCN)C(=O)NCC(=O)N[C@@H](C)C(=O)N[C@@H](C)C(=O)N[C@@H](CCCCN)C(=O)N[C@H](C(=O)N[C@H](C(=O)N[C@@H](C)C(=O)N[C@@H](C)C(=O)N[C@@H](CCCCN)C(=O)N[C@@H](CC(C)C)C(=O)N[C@@H](CC(C)C)C(N)=O)C(C)C)[C@@H](C)O)[C@@H](C)O)[C@@H](C)CC [tB2U-K] (H-GVIIKTLKGAAKTVAAKLL-NH2) | 64 (≈ 121 µg/mL) | 32 (≈ 60.6 µg/mL) | >512 | 128 (≈ 242 µg/mL) | 8 (≈ 15.2 µg/mL) | 32 (≈ 60.6 µg/mL) | 128 (≈ 242 µg/mL) | 128 (≈ 242 µg/mL) | > 512 | 16 | > 512 | 16
